# Assay results taken from patent US8293786B2 (Alltranz Inc., priority 2007, dated 2012).
# Columns and labels:
# [1] = Plasma stability of cannabidiol prodrugs (bioconversion to parent drug); assay type: in vitro ADME; conditions: for % mono-prodrug at time (h) / % Di-prodrug at time (h): di-prodrug in plasma; for % mono-prodrug at time (h): mono-prodrug formed; for % Prodrug at time (h): mono-prodrug in plasma
# Experimental: An approximated 1 mg/mL stock solution of each prodrug was prepared in 100 μL of ethanol and 900 μL of acetonitrile. Ten (10) μL of stock was spiked into 1 mL of plasma and vortexed. The samples were kept sealed in an amber vial and samples were obtained to analyze for bioconversion to parent drug.
# [2] = system: human abdominal skin; experiment: In vitro human skin permeation and skin disposition, flow-through diffusion cells (Examples 2, 2A, 2B); assay type: in vitro ADME; conditions: for 30 h cumulative amt / 30 h skin conc / Flux / Lag time / Flux enhancement / 24 h cumulative amt / 24 h skin conc: 40% aqueous PEG 400 receiver fluid; for Flux enhancement: total cannabidiol versus cannabidiol
# In short: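 Dermatomed (~200 μm) frozen human abdominal skin was mounted in flow-through cells at 32° C (0.95 cm^2), stratum corneum to donor. Donors were 0.10 mL 45:4:1 PG:H2O:IPM solution or 50 μL gel; receiver was 40% PEG 400 (HEPES-Hanks pH 7.4 or aqueous) with gentamicin at 0.8 mL/h. Samples were taken every 3 h for 24-42 h; skin accumulation was expressed as μmol/g wet tissue.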
# [3] = Table 18, 90:8:2 PG:H2O:IPM donor solution, CBD from applied prodrug
# [4] = Table 18, 90:8:2 PG:H2O:IPM donor solution, as applied compound (CBD or intact prodrug)
# [5] = Table 18, 90:8:2 PG:H2O:IPM donor solution, mono-prodrug from applied di-prodrug
# [6] = Table 18, 90:8:2 PG:H2O:IPM donor solution, prodrug applied, as total cannabidiol equivalents
# [7] = Table 23, gel formulation, as applied compound (CBD or intact prodrug)
# [8] = Table 23, gel formulation, mono-prodrug (ALL00149) from applied di-prodrug
# [9] = Table 23, gel formulation, prodrug applied, as total cannabidiol equivalents
# [10] = Table 23, gel formulation, CBD from applied prodrug
compound,measurement,setting,value
"C=C(C)[C@@H]1CCC(C)=C[C@H]1c1c(OC(=O)CO)cc(CCCCC)cc1OC(=O)CO [ALL00147, CBD Diglycolate]",% mono-prodrug at time (h),"[1]; Table 20, 0.5 h",0%
same,% mono-prodrug at time (h),"[1]; Table 20, 2 h",0%
same,% mono-prodrug at time (h),"[1]; Table 20, 22 h",0%
same,% mono-prodrug at time (h),"[1]; Table 20, 24 h",0%
same,% Di-prodrug at time (h),"[1]; Table 20, 0 h",100%
same,% Di-prodrug at time (h),"[1]; Table 20, 0.5 h",55%
same,% Di-prodrug at time (h),"[1]; Table 20, 2 h",32%
same,% Di-prodrug at time (h),"[1]; Table 20, 22 h",13%
same,% Di-prodrug at time (h),"[1]; Table 20, 24 h",12%
same,% mono-prodrug at time (h),"[1]; Table 24, 0 h",3%
same,% mono-prodrug at time (h),"[1]; Table 24, 0.5 h",37%
same,% mono-prodrug at time (h),"[1]; Table 24, 1 h",10%
same,% mono-prodrug at time (h),"[1]; Table 24, 2 h",2%
same,% Di-prodrug at time (h),"[1]; Table 24, 0 h",97%
same,% Di-prodrug at time (h),"[1]; Table 24, 0.5 h",0%
same,% Di-prodrug at time (h),"[1]; Table 24, 1 h",0%
same,% Di-prodrug at time (h),"[1]; Table 24, 2 h",0%
same,30 h cumulative amt,[2]; [3],8.2 ± 7.0 nmol
same,30 h skin conc,[2]; [3],3.9 ± 0.8 µmol/g
same,Flux,[2]; [3],0.7 ± 0.6 nmol/cm^2/h
same,Lag time,[2]; [3],16.7 ± 0.7 h
same,30 h cumulative amt,[2]; [4],11.7 ± 3.8 nmol
same,30 h skin conc,[2]; [4],6.3 ± 5.6 µmol/g
same,Flux,[2]; [4],0.7 ± 0.01 nmol/cm^2/h
same,Lag time,[2]; [4],13.0 ± 5.9 h
same,30 h cumulative amt,[2]; [5],9.1 ± 0.2 nmol
same,30 h skin conc,[2]; [5],7.1 ± 6.3 µmol/g
same,Flux,[2]; [5],0.6 ± 0.2 nmol/cm^2/h
same,Lag time,[2]; [5],11.8 ± 5.9 h
same,30 h cumulative amt,[2]; [6],29.0 ± 3.4 nmol
same,30 h skin conc,[2]; [6],17.3 ± 12.6 µmol/g
same,Flux,[2]; [6],1.9 ± 0.8 nmol/cm^2/h
same,Lag time,[2]; [6],13.3 ± 5.0 h
same,Flux enhancement,"[2]; Table 18, 90:8:2 PG:H2O:IPM donor solution",0.24
same,24 h cumulative amt,[2]; [7],0.9 nmol
same,24 h skin conc,[2]; [7],0.8 ± 0.7 µmol/g
same,24 h cumulative amt,[2]; [8],5.7 nmol
same,24 h skin conc,[2]; [8],8.7 ± 6.6 µmol/g
same,Flux,[2]; [8],0.25 nmol/cm^2/h
same,24 h cumulative amt,[2]; [9],12.5 nmol
same,24 h skin conc,[2]; [9],9.5 ± 7.3 µmol/g
same,Flux,[2]; [9],0.58 nmol/cm^2/h
same,Flux enhancement,"[2]; Table 23, gel formulation",2.0
same,detected in the skin as,[2]; in donor solution,"prodrug, mono-substituted prodrug, ALL00149, and cannabidiol"
same,flux compared to cannabidiol,[2]; in donor solution,did not increase the flux
same,lag time compared to cannabidiol,[2]; in donor solution,not decreased
same,permeated through the skin as,[2]; in donor solution,"intact prodrug, mono-substituted prodrug (ALL00149), and cannabidiol"
same,total skin concentrations compared to cannabidiol,[2]; in donor solution,not higher
same,detected in the skin as,[2]; in gel formulation,"primarily as mono-prodrug, ALL00149 with a trace amount of ALL00147"
same,increase of the flux compared to cannabidiol,[2]; in gel formulation,2 fold
same,share permeated through the skin as cannabidiol,[2]; in gel formulation,47.2%
same,share permeated through the skin as intact di-prodrug,[2]; in gel formulation,7.2%
same,share permeated through the skin as mono-prodrug,[2]; in gel formulation,45.6%
same,total skin concentrations compared to cannabidiol,[2]; in gel formulation,weren't higher
"C=C(C)[C@@H]1CCC(C)=C[C@H]1c1c(O)cc(CCCCC)cc1OC(=O)CO [ALL00149, CBD Glycolate]",% Prodrug at time (h),"[1]; Table 24, 0 h",100%
same,% Prodrug at time (h),"[1]; Table 24, 0.5 h",31%
same,% Prodrug at time (h),"[1]; Table 24, 1 h",12%
same,% Prodrug at time (h),"[1]; Table 24, 2 h",0%
same,24 h cumulative amt,[2]; [10],1.2 nmol
same,24 h skin conc,[2]; [10],0.9 ± 0.0 µmol/g
same,24 h cumulative amt,[2]; [7],5.8 nmol
same,24 h skin conc,[2]; [7],46.0 ± 11.5 µmol/g
same,Flux,[2]; [7],0.29 nmol/cm^2/h
same,Lag time,[2]; [7],6.4 h
same,24 h cumulative amt,[2]; [9],6.9 nmol
same,24 h skin conc,[2]; [9],46.3 ± 11.8 µmol/g
same,Flux,[2]; [9],0.40 nmol/cm^2/h
same,Lag time,[2]; [9],6.2 h
same,Flux enhancement,"[2]; Table 23, gel formulation",1.4
same,detected in the skin as,[2]; in gel formulation,primarily ALL00149 with a trace amount of cannabidiol
same,lag time compared to cannabidiol,[2]; in gel formulation,lower
same,permeated through the skin as,[2]; in gel formulation,primarily ALL00149 with a trace amount of cannabidiol
same,total skin concentrations compared to cannabidiol,[2]; in gel formulation,higher
same,increase of the flux compared to cannabidiol,"[2]; in gel formulation, unit not given",1.4
